From patent publication US20190119645A1, “GENERATION OF ADULT-LIKE HEART MUSCLE FROM HUMAN PLURIPOTENT STEM CELLS” (The Johns Hopkins University, priority 2015, published 2019)

How the values were obtained:
hiPSC-derived neurons = experiment: Patch-clamp recording of spontaneous synaptic events in hiPSC-derived neurons; assay type: cell-based, human; settings: 10 μM; hiPSC-derived neurons in slices and in cultures; applied with Bic
Procedure: (§1) Transverse brain slices of 350 μm thickness were prepared at 8 weeks after differentiated hiPSC cells injection using a vibratome (Leica VT1200S). Slices were incubated in artificial cerebrospinal fluid (ACSF) containing (in mM): NaCl 125, KCl 2.5, MgSO4 1, NaH2PO4 1.25, NaHCO3 26, CaCl2 2, and D-glucose 10. Slices were maintained in ACSF and continuously bubbled with 95% O2 and 5% CO2, first at 34° C. for 30 min, and then at room temperature. A single slice was transferred into a submerged recording chamber and perfused constantly with carbogen-equilibrated ACSF at a rate of 2 ml/min Injected human neurons expressing RFP were visualized under a 40× water immersion objective by fluorescence and DIC optics (Carl Zeiss, Germany). […] Resting membrane potential (RMP) was recorded in current clamp mode at 0 pA immediately after establishing whole-cell configuration. Series resistance (Rseries) and input resistance (Rin) were calculated from a 5 mV pulse and monitored throughout the experiment. […]
(§2) For voltageclamp experiments, the membrane potential was typically held at −70 mV. […] Data were acquired by PatchMaster software (HEKA Elektronik, Lambrech, Germany) Na^+ and K^+ currents and action potentials were analyzed using Clampfit 10.5 software (Molecular devices, Palo Alto, Calif., USA). Spontaneous synaptic events were analyzed using MiniAnalysis software (Synaptosoft, Decatur, Ga., USA). […]

[1] = tested on: functional sodium and potassium channels in hiPSC-neurons; experiment: Voltage-clamp recording of Na+ and K+ currents in hiPSC-derived neurons; assay type: cell-based, human; settings: depolarizing voltage steps; hiPSC-neurons after 8 weeks of maturation
Procedure: as §1, §2

SMILES: N#Cc1cc2c(cc1[N+](=O)[O-])=NC(=O)C(=O)N=2 [CNQX, 6-Cyano-7-nitroquinoxaline-2,3-dione]
- spontaneous synaptic events (hiPSC-derived neurons): blocked

SMILES: CC[N+](CC)(CC)CC [TEA]
- voltage-dependent inward and outward currents, sensitivity [1]: selectively sensitive
